Laboratory results from PubChem BioAssay (NCI).
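Where inhibition never reached the appropriate level, the endpoint shown equals the highest concentration tested. Otherwise, values were interpolated linearly from a five-concentration, 48-hour dose response in 96-well plates. At the GI50, growth is halved. At the TGI there is no net growth.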

Columns and labels:
Assay in all cases: NCI tumour cell line growth inhibition, 48 h
MOLT-4 leukemia = test system: MOLT-4 leukemia
NCI-H226 lung = test system: NCI-H226 lung
NCI-H23 lung = test system: NCI-H23 lung
NCI-H460 lung = test system: NCI-H460 lung
OVCAR-3 ovarian = test system: OVCAR-3 ovarian
OVCAR-4 ovarian = test system: OVCAR-4 ovarian
OVCAR-5 ovarian = test system: OVCAR-5 ovarian
OVCAR-8 ovarian = test system: OVCAR-8 ovarian
RPMI-8226 leukemia = test system: RPMI-8226 leukemia
RXF 393 renal = test system: RXF 393 renal
SF-268 CNS = test system: SF-268 CNS
SF-295 CNS = test system: SF-295 CNS
SF-539 CNS = test system: SF-539 CNS
SK-MEL-2 melanoma = test system: SK-MEL-2 melanoma
SK-MEL-28 melanoma = test system: SK-MEL-28 melanoma
SK-MEL-5 melanoma = test system: SK-MEL-5 melanoma
SK-OV-3 ovarian = test system: SK-OV-3 ovarian
SN12C renal = test system: SN12C renal
SNB-19 CNS = test system: SNB-19 CNS
SNB-75 CNS = test system: SNB-75 CNS
SNB-78 CNS = test system: SNB-78 CNS
SR leukemia = test system: SR leukemia
TK-10 renal = test system: TK-10 renal
U251 CNS = test system: U251 CNS
UACC-257 melanoma = test system: UACC-257 melanoma
UACC-62 melanoma = test system: UACC-62 melanoma
UO-31 renal = test system: UO-31 renal

Compound: C[N-]c1nnnn1C.[Au+].c1ccc([PH+](c2ccccc2)c2ccccc2)cc1
- TGI (MOLT-4 leukemia): 4.22 µM
- GI50 (NCI-H226 lung): 4.98 µM
- TGI (NCI-H226 lung): 14 µM
- GI50 (NCI-H23 lung): 1.97 µM
- TGI (NCI-H23 lung): 4.48 µM
- GI50 (NCI-H460 lung): 8.54 µM
- TGI (NCI-H460 lung): 52.7 µM
- GI50 (OVCAR-3 ovarian): 2.58 µM
- TGI (OVCAR-3 ovarian): 6.53 µM
- GI50 (OVCAR-4 ovarian): 3.19 µM
- TGI (OVCAR-4 ovarian): 12.9 µM
- GI50 (OVCAR-5 ovarian): 19.1 µM
- TGI (OVCAR-5 ovarian): 34 µM
- GI50 (OVCAR-8 ovarian): 3.18 µM
- TGI (OVCAR-8 ovarian): 14.2 µM
- GI50 (RPMI-8226 leukemia): 1.29 µM
- TGI (RPMI-8226 leukemia): 4.54 µM
- GI50 (RXF 393 renal): 0.347 µM
- TGI (RXF 393 renal): 1.26 µM
- GI50 (SF-268 CNS): 3.5 µM
- TGI (SF-268 CNS): 15.4 µM
- GI50 (SF-295 CNS): 3.47 µM
- TGI (SF-295 CNS): 12.2 µM
- GI50 (SF-539 CNS): 2.38 µM
- TGI (SF-539 CNS): 7.39 µM
- GI50 (SK-MEL-2 melanoma): 1.66 µM
- TGI (SK-MEL-2 melanoma): 3.78 µM
- GI50 (SK-MEL-28 melanoma): 1.39 µM
- TGI (SK-MEL-28 melanoma): 3.13 µM
- GI50 (SK-MEL-5 melanoma): 1.59 µM
- TGI (SK-MEL-5 melanoma): 3.65 µM
- GI50 (SK-OV-3 ovarian): 13 µM
- TGI (SK-OV-3 ovarian): 26.6 µM
- GI50 (SN12C renal): 3.46 µM
- TGI (SN12C renal): 7.92 µM
- GI50 (SNB-19 CNS): 2.25 µM
- TGI (SNB-19 CNS): 6.18 µM
- GI50 (SNB-75 CNS): 4.75 µM
- TGI (SNB-75 CNS): 11 µM
- GI50 (SNB-78 CNS): 5.28 µM
- TGI (SNB-78 CNS): > 69.1 µM
- GI50 (SR leukemia): 1.11 µM
- TGI (SR leukemia): 4.12 µM
- GI50 (TK-10 renal): 2.19 µM
- TGI (TK-10 renal): 4.42 µM
- GI50 (U251 CNS): 2.28 µM
- TGI (U251 CNS): 5.56 µM
- GI50 (UACC-257 melanoma): 2.03 µM
- TGI (UACC-257 melanoma): 6.51 µM
- GI50 (UACC-62 melanoma): 2.06 µM
- TGI (UACC-62 melanoma): 6.87 µM
- GI50 (UO-31 renal): 12.7 µM
- TGI (UO-31 renal): 25.3 µM
